From patent publication US20230212319A1, “NOVEL ANTIGEN BINDING DOMAINS AND SYNTHETIC ANTIGEN RECEPTORS INCORPORATING THE SAME” (University of Southern California, priority 2020, published 2023) come the findings set out here.

The subject of test [1] is RAJI cells. Put plainly: T cell cytotoxicity against RAJI (Matador assay, Gluc). It counts as cell-based.
For test [2], the system named is Nalm6 cells. Put plainly: Cytokine ELISA (IFNγ, TNFα, IL-2) after co-culture with Nalm6. It counts as cell-based. Particulars: T cells expanded 7 days with compound, co-cultured with Nalm6 48 h.
Method: After 48 h, supernatant was collected and used for measurement of IFNγ, TNFα and IL-2 by ELISA.
Control T cells or SIR-T cells grown in regular flask or G-Rex 6-well plate were cultured with Nalm6-hGLuc 100 K/well/100 ul in 96-well plate U-bottom in XVIVO medium with no additional component. After 48 h co-culture, supernatant was collected and used for ELISA.
The supernatant from the different cell populations were tested for cytokine production upon co-culture with NALM6 cells.
Test [3] is described as follows: Flow cytometry of expanded CAR-T/SIR-T cells (Protein L staining, T cell surface markers). Type of test: cell-based, human. Particulars: CAR-T and SIR-T cells expanded 7 days with 1 µM.
Method: Cells were expanded in XVIVO medium under standard conditions in the presence of IL2 and CD3/CD28 beads in the absence or presence of Birinapant 1 µM for 7 days and. After 7 days, cells were analyzed by flow cytometry for expression of different cell surface markers.
Cells were pelleted and re-suspended in XVIVO-15 (Lonza) T-cell medium supplemented with PSA, 100 IU/ml recombinant human IL2 and Dynabeads Human T-Activator CD3/CD28 and 5% hAB serum.
The cells were analyzed by flow cytometery for expresson of SIR by staining with Protein L and for presence of different T cell markers.
After 13 days of culture, cells were counted and analyzed by flow cytometry.

As for `CC[C@H](NC(=O)[C@H](C)NC)C(=O)N1C[C@@H](O)C[C@H]1Cc1c(-c2[nH]c3cc(F)ccc3c2C[C@@H]2C[C@H](O)CN2C(=O)[C@H](CC)NC(=O)[C@H](C)NC)[nH]c2cc(F)ccc12` [Birinapant], the “non-specific killing by uninfected control T cells expanded in presence of SMAC mimetic” value in test [1] (100 nM or 1 µM, 16 days, RAJI-Gluc, 4 h) is given as “no effect”. Moreover, the “cell killing of RAJI cells by SAR-T cells expanded in presence of SMAC mimetic” value in test [1] (SAR SEQ ID NO: 7348 T cells expanded 16 days with 100 nM or 1 µM, E:T 0.25:1 and 0.5:1, 4 h) is reported as “dose dependent increase”. Also, in test [2], the IFNγ secretion entry was “no significant decrease”, the IL2 secretion entry is listed as “no significant decrease” and the TNFα secretion entry is “no significant decrease”. Further, in test [3], the CD4 cells entry is given as “decline”, the CD62L cells entry is “increase” and the “proportion of CD8 cells” value is “increase”.
